# Assay results as given in ChEMBL document CHEMBL2406981, “Novel pyrazoline amidoxime and their 1,2,4-oxadiazole analogues: synthesis and pharmacological screening” (Bioorg Med Chem Lett, 2013).
# Tested on: not listed separately
# Experiment: Antiinflammatory activity against heat-induced albumin denaturation at […] preincubated for 15 mins before heat induction by UV-vis spectrophotometer analysis
# Type: functional
# Conditions: not given
row,SMILES,inhibition [%]
1,COc1ccc(C2=NN(c3ccccc3)C(c3noc(-c4ccc(OC)c(OC)c4)n3)C2)cc1 (stereo unspecified),29.9

# Tested on: Aspergillus flavus
# Experiment: Antimicrobial activity against Aspergillus flavus MTCC 873
# Type: functional
# Conditions: not given
row,SMILES,MIC [µg/mL]
1,COc1ccc(C2=NN(c3ccccc3)C(c3noc(-c4ccc(OC)c(OC)c4)n3)C2)cc1 (stereo unspecified),10

# Tested on: Aspergillus niger
# Experiment: Antimicrobial activity against Aspergillus niger MTCC 281
# Type: functional
# Conditions: not given
row,SMILES,MIC [µg/mL]
1,COc1ccc(C2=NN(c3ccccc3)C(c3noc(-c4ccc(OC)c(OC)c4)n3)C2)cc1 (stereo unspecified),10

# Tested on: Shigella flexneri
# Experiment: Antimicrobial activity against Shigella flexneri MTCC 1457
# Type: functional
# Conditions: not given
row,SMILES,MIC [µg/mL]
1,COc1ccc(C2=NN(c3ccccc3)C(c3noc(-c4ccc(OC)c(OC)c4)n3)C2)cc1 (stereo unspecified),15

# Tested on: Escherichia coli
# Experiment: Antimicrobial activity against Escherichia coli MTCC 724
# Type: functional
# Conditions: not given
row,SMILES,MIC [µg/mL]
1,COc1ccc(C2=NN(c3ccccc3)C(c3noc(-c4ccc(OC)c(OC)c4)n3)C2)cc1 (stereo unspecified),20

# Tested on: Klebsiella pneumoniae
# Experiment: Antimicrobial activity against Klebsiella pneumoniae MTCC 3384
# Type: functional
# Conditions: not given
row,SMILES,MIC [µg/mL]
1,COc1ccc(C2=NN(c3ccccc3)C(c3noc(-c4ccc(OC)c(OC)c4)n3)C2)cc1 (stereo unspecified),20

# Tested on: Staphylococcus aureus
# Experiment: Antimicrobial activity against Staphylococcus aureus MTCC 96
# Type: functional
# Conditions: not given
row,SMILES,MIC [µg/mL]
1,COc1ccc(C2=NN(c3ccccc3)C(c3noc(-c4ccc(OC)c(OC)c4)n3)C2)cc1 (stereo unspecified),15

# Tested on: Bacillus cereus
# Experiment: Antimicrobial activity against Bacillus cereus MTCC 8372
# Type: functional
# Conditions: not given
row,SMILES,MIC [µg/mL]
1,COc1ccc(C2=NN(c3ccccc3)C(c3noc(-c4ccc(OC)c(OC)c4)n3)C2)cc1 (stereo unspecified),10

# Tested on: Aspergillus niger
# Experiment: Antimicrobial activity against Aspergillus niger MTCC 281 at 50 ug/ml after 24 hrs by agar disc diffusion method
# Type: functional
# Conditions: MTCC 281, 24 h, read-out: DIZ
row,SMILES,zone of inhibition at 50 µg/mL [mm]
1,COc1ccc(C2=NN(c3ccccc3)C(c3noc(-c4ccc(OC)c(OC)c4)n3)C2)cc1 (stereo unspecified),16

# Tested on: Aspergillus niger
# Experiment: Antimicrobial activity against Aspergillus niger MTCC 281 at 100 ug/ml after 24 hrs by agar disc diffusion method
# Type: functional
# Conditions: MTCC 281, 24 h, read-out: DIZ
row,SMILES,zone of inhibition at 100 µg/mL [mm]
1,COc1ccc(C2=NN(c3ccccc3)C(c3noc(-c4ccc(OC)c(OC)c4)n3)C2)cc1 (stereo unspecified),30

# Tested on: Aspergillus flavus
# Experiment: Antimicrobial activity against Aspergillus flavus MTCC 873 at 100 ug/ml after 24 hrs by agar disc diffusion method
# Type: functional
# Conditions: MTCC 873, 24 h, read-out: DIZ
row,SMILES,zone of inhibition at 100 µg/mL [mm]
1,COc1ccc(C2=NN(c3ccccc3)C(c3noc(-c4ccc(OC)c(OC)c4)n3)C2)cc1 (stereo unspecified),20

# Tested on: Aspergillus flavus
# Experiment: Antimicrobial activity against Aspergillus flavus MTCC 873 at 50 ug/ml after 24 hrs by agar disc diffusion method
# Type: functional
# Conditions: MTCC 873, 24 h, read-out: DIZ
row,SMILES,zone of inhibition at 50 µg/mL [mm]
1,COc1ccc(C2=NN(c3ccccc3)C(c3noc(-c4ccc(OC)c(OC)c4)n3)C2)cc1 (stereo unspecified),16

# Tested on: Shigella flexneri
# Experiment: Antimicrobial activity against Shigella flexneri MTCC 1457 at 100 ug/ml after 24 hrs by agar disc diffusion method
# Type: functional
# Conditions: MTCC 1457, 24 h, read-out: DIZ
row,SMILES,zone of inhibition at 100 µg/mL [mm]
1,COc1ccc(C2=NN(c3ccccc3)C(c3noc(-c4ccc(OC)c(OC)c4)n3)C2)cc1 (stereo unspecified),24

# Tested on: Shigella flexneri
# Experiment: Antimicrobial activity against Shigella flexneri MTCC 1457 at 50 ug/ml after 24 hrs by agar disc diffusion method
# Type: functional
# Conditions: MTCC 1457, 24 h, read-out: DIZ
row,SMILES,zone of inhibition at 50 µg/mL [mm]
1,COc1ccc(C2=NN(c3ccccc3)C(c3noc(-c4ccc(OC)c(OC)c4)n3)C2)cc1 (stereo unspecified),10

# Tested on: Klebsiella pneumoniae
# Experiment: Antimicrobial activity against Klebsiella pneumoniae MTCC 3384 at 100 ug/ml after 24 hrs by agar disc diffusion method
# Type: functional
# Conditions: MTCC 3384, 24 h, read-out: DIZ
row,SMILES,zone of inhibition at 100 µg/mL [mm]
1,COc1ccc(C2=NN(c3ccccc3)C(c3noc(-c4ccc(OC)c(OC)c4)n3)C2)cc1 (stereo unspecified),18

# Tested on: Klebsiella pneumoniae
# Experiment: Antimicrobial activity against Klebsiella pneumoniae MTCC 3384 at 50 ug/ml after 24 hrs by agar disc diffusion method
# Type: functional
# Conditions: MTCC 3384, 24 h, read-out: DIZ
row,SMILES,zone of inhibition at 50 µg/mL [mm]
1,COc1ccc(C2=NN(c3ccccc3)C(c3noc(-c4ccc(OC)c(OC)c4)n3)C2)cc1 (stereo unspecified),8

# Tested on: Escherichia coli
# Experiment: Antimicrobial activity against Escherichia coli MTCC 724 at 100 ug/ml after 24 hrs by agar disc diffusion method
# Type: functional
# Conditions: MTCC 724, 24 h, read-out: DIZ
row,SMILES,zone of inhibition at 100 µg/mL [mm]
1,COc1ccc(C2=NN(c3ccccc3)C(c3noc(-c4ccc(OC)c(OC)c4)n3)C2)cc1 (stereo unspecified),16

# Tested on: Escherichia coli
# Experiment: Antimicrobial activity against Escherichia coli MTCC 724 at 50 ug/ml after 24 hrs by agar disc diffusion method
# Type: functional
# Conditions: MTCC 724, 24 h, read-out: DIZ
row,SMILES,zone of inhibition at 50 µg/mL [mm]
1,COc1ccc(C2=NN(c3ccccc3)C(c3noc(-c4ccc(OC)c(OC)c4)n3)C2)cc1 (stereo unspecified),8

# Tested on: Staphylococcus aureus
# Experiment: Antimicrobial activity against Staphylococcus aureus MTCC 96 at 100 ug/ml after 24 hrs by agar disc diffusion method
# Type: functional
# Conditions: MTCC 96, 24 h, read-out: DIZ
row,SMILES,zone of inhibition at 100 µg/mL [mm]
1,COc1ccc(C2=NN(c3ccccc3)C(c3noc(-c4ccc(OC)c(OC)c4)n3)C2)cc1 (stereo unspecified),18

# Tested on: Staphylococcus aureus
# Experiment: Antimicrobial activity against Staphylococcus aureus MTCC 96 at 50 ug/ml after 24 hrs by agar disc diffusion method
# Type: functional
# Conditions: MTCC 96, 24 h, read-out: DIZ
row,SMILES,zone of inhibition at 50 µg/mL [mm]
1,COc1ccc(C2=NN(c3ccccc3)C(c3noc(-c4ccc(OC)c(OC)c4)n3)C2)cc1 (stereo unspecified),10

# Tested on: Bacillus cereus
# Experiment: Antimicrobial activity against Bacillus cereus MTCC 8372 at 100 ug/ml after 24 hrs by agar disc diffusion method
# Type: functional
# Conditions: MTCC 8372, 24 h, read-out: DIZ
row,SMILES,zone of inhibition at 100 µg/mL [mm]
1,COc1ccc(C2=NN(c3ccccc3)C(c3noc(-c4ccc(OC)c(OC)c4)n3)C2)cc1 (stereo unspecified),16

# Tested on: Bacillus cereus
# Experiment: Antimicrobial activity against Bacillus cereus MTCC 8372 at 50 ug/ml after 24 hrs by agar disc diffusion method
# Type: functional
# Conditions: MTCC 8372, 24 h, read-out: DIZ
row,SMILES,zone of inhibition at 50 µg/mL [mm]
1,COc1ccc(C2=NN(c3ccccc3)C(c3noc(-c4ccc(OC)c(OC)c4)n3)C2)cc1 (stereo unspecified),12

# Tested on: not listed separately
# Experiment: Antioxidant activity against ferric chloride-induced lipid peroxidation using egg lecithin at 50 ug/ml after 1 hr
# Type: functional
# Conditions: not given
row,SMILES,inhibition [%]
1,COc1ccc(C2=NN(c3ccccc3)C(c3noc(-c4ccc(OC)c(OC)c4)n3)C2)cc1 (stereo unspecified),49

# Tested on: not listed separately
# Experiment: Antioxidant activity against ferric chloride-induced lipid peroxidation using egg lecithin at 100 ug/ml after 1 hr
# Type: functional
# Conditions: not given
row,SMILES,inhibition [%]
1,COc1ccc(C2=NN(c3ccccc3)C(c3noc(-c4ccc(OC)c(OC)c4)n3)C2)cc1 (stereo unspecified),76

# Tested on: not listed separately
# Experiment: Antioxidant activity against ferric chloride-induced lipid peroxidation using egg lecithin at 10 ug/ml after 1 hr
# Type: functional
# Conditions: not given
row,SMILES,inhibition [%]
1,COc1ccc(C2=NN(c3ccccc3)C(c3noc(-c4ccc(OC)c(OC)c4)n3)C2)cc1 (stereo unspecified),34

# Tested on: not listed separately
# Experiment: Antioxidant activity assessed as reducing power of ferric ion at 50 ug/ml after 20 mins
# Type: functional
# Set-up: scale not given: the % may be the effect or the level left
# Conditions: not given
row,SMILES,Activity [%]
1,COc1ccc(C2=NN(c3ccccc3)C(c3noc(-c4ccc(OC)c(OC)c4)n3)C2)cc1 (stereo unspecified),23

# Tested on: not listed separately
# Experiment: Antioxidant activity assessed as reducing power of ferric ion at 100 ug/ml after 20 mins
# Type: functional
# Set-up: scale not given: the % may be the effect or the level left
# Conditions: not given
row,SMILES,Activity [%]
1,COc1ccc(C2=NN(c3ccccc3)C(c3noc(-c4ccc(OC)c(OC)c4)n3)C2)cc1 (stereo unspecified),74

# Tested on: not listed separately
# Experiment: Antioxidant activity assessed as reducing power of ferric ion at 10 ug/ml after 20 mins
# Type: functional
# Set-up: scale not given: the % may be the effect or the level left
# Conditions: not given
row,SMILES,Activity [%]
1,COc1ccc(C2=NN(c3ccccc3)C(c3noc(-c4ccc(OC)c(OC)c4)n3)C2)cc1 (stereo unspecified),13

# Tested on: Radical scavenging activity
# Experiment: Antioxidant activity assessed as DPPH free radical scavenging activity at 50 ug/ml after 20 mins
# Type: functional
# Conditions: not given
row,SMILES,Activity [%]
1,COc1ccc(C2=NN(c3ccccc3)C(c3noc(-c4ccc(OC)c(OC)c4)n3)C2)cc1 (stereo unspecified),48

# Tested on: Radical scavenging activity
# Experiment: Antioxidant activity assessed as DPPH free radical scavenging activity at 100 ug/ml after 20 mins
# Type: functional
# Conditions: not given
row,SMILES,Activity [%]
1,COc1ccc(C2=NN(c3ccccc3)C(c3noc(-c4ccc(OC)c(OC)c4)n3)C2)cc1 (stereo unspecified),67

# Tested on: Radical scavenging activity
# Experiment: Antioxidant activity assessed as DPPH free radical scavenging activity at 10 ug/ml after 20 mins
# Type: functional
# Conditions: not given
row,SMILES,Activity [%]
1,COc1ccc(C2=NN(c3ccccc3)C(c3noc(-c4ccc(OC)c(OC)c4)n3)C2)cc1 (stereo unspecified),29
